Laboratory results reported in US12679807B2 (MERCK SHARP & DOHME LLC, priority 2020, dated 2026).

Target: T1, GCS enzyme contained within Golgi preparations isolated from human A375 malignant melanoma skin cells (Homo sapiens, UniProt Q16739)
T1 construct: endogenous levels of GCS enzyme contained within Golgi preparations isolated from human A375 malignant melanoma skin cells; endogenous in cells; host or cells: A375 human malignant melanoma cells (crude Golgi preparation)
T1 sequence (Q16739 1-394): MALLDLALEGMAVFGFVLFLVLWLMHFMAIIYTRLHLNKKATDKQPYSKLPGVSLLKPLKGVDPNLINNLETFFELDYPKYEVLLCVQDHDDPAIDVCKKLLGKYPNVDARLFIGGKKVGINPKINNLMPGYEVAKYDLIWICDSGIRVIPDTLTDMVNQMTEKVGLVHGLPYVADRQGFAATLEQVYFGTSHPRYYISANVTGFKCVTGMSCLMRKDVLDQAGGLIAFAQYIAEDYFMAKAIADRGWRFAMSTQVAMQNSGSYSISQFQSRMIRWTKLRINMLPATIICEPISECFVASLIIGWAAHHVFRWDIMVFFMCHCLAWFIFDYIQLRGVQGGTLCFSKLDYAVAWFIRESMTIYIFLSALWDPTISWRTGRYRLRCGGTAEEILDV
Assay: UDP-Glo glucosylceramide synthase biochemical assay
Details: crude Golgi preparation from A375 cells; C6 ceramide and UDP-glucose substrates; 20 h incubation at room temperature; UDP detected by luminescence
Procedure, shortened: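 Endogenous enzyme in A375 Golgi preparations (1.5 μg total protein) was preincubated 30 min with compound, then reacted 20 h at room temperature with UDP-glucose and ceramide.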

Compared with O=C(Nc1cccc2c1C(=O)N(C(C1CC1)C1CC1)C2)c1c(Br)ccc2c1OCO2 [Compound 109, 5-Bromo-N-(2-(dicyclopropylmethyl)-3-oxoisoindolin-4-yl)-benzo[d][1,3]dioxole-4-carboxamide], Cc1cnc2c(c1C(=O)Nc1cccc3c1C(=O)N(C(C1CC1)C1CC1)C3)OCO2 [Compound 117, N-(2-(dicyclopropylmethyl)-3-oxoisoindolin-4-yl)-6-methyl-[1,3]dioxolo[4,5-b]pyridine-7-carboxamide] is 2.6-fold higher in EC50: 2 nM for the first, 5.2 nM for the second. The first is the more potent here.

Going from O=C(Nc1cccc2c1C(=O)N(C(C1CC1)C1CC1)C2)c1c(Cl)cnc2c1OCO2 [Compound 118, 6-chloro-N-(2-(dicyclopropylmethyl)-3-oxoisoindolin-4-yl)-[1,3]dioxolo[4,5-b]pyridine-7-carboxamide] to C[C@@H](C1CC1)N1Cc2cccc(NC(=O)c3c(Cl)cnc4c3OCO4)c2C1=O [Compound 137, (S)-6-chloro-N-(2-(1-cyclopropylethyl)-3-oxoisoindolin-4-yl)-[1,3]dioxolo[4,5-b]pyridine-7-carboxamide], the EC50 rises from 5.7 nM to 77 nM (14-fold).

Compared with O=C(Nc1cccc2c1C(=O)N(C(C1CC1)C1CC1)C2)c1ccnc2c1CCC2 [Compound 121, N-(2-(dicyclopropylmethyl)-3-oxoisoindolin-4-yl)-6,7-dihydro-5H-cyclopenta[b]pyridine-4-carboxamide], C[C@@H](C1CC1)N1Cc2cccc(NC(=O)c3ccnc4c3CCC4)c2C1=O [Compound 140, (S)-N-(2-(1-cyclopropylethyl)-3-oxoisoindolin-4-yl)-6,7-dihydro-5H-cyclopenta[b]pyridine-4-carboxamide] is 8-fold higher in EC50: 15 nM for the first, 120 nM for the second. The first is the more potent here.

Cc1ccc(Cl)c(C(=O)Nc2cccc3c2C(=O)N([C@@H](CO)C(C)C)C3)c1F [Compound 122, (R)-6-chloro-2-fluoro-N-(2-(1-hydroxy-3-methylbutan-2-yl)-3-oxoisoindolin-4-yl)-3-methylbenzamide] and CC(C)[C@H](CO)N1Cc2cccc(NC(=O)c3c(Cl)ccc(F)c3Cl)c2C1=O [Compound 124, (R)-2,6-dichloro-3-fluoro-N-(2-(1-hydroxy-3-methylbutan-2-yl)-3-oxoisoindolin-4-yl)benzamide] are within 1.5-fold of each other in EC50: 18 nM for the first, 26 nM for the second.

C[C@@H](N1Cc2cccc(NC(=O)c3c(Cl)ccc(F)c3Cl)c2C1=O)C(C)(C)O [Compound 123, (R)-2,6-dichloro-3-fluoro-N-(2-(3-hydroxy-3-methylbutan-2-yl)-3-oxoisoindolin-4-yl)benzamide] and C[C@@H](N1Cc2cccc(NC(=O)c3nc(C(F)(F)F)ccc3Cl)c2C1=O)C(C)(C)O [Compound 129, (R)-3-chloro-N-(2-(3-hydroxy-3-methylbutan-2-yl)-3-oxoisoindolin-4-yl)-6-(trifluoromethyl)picolinamide] are within 1.5-fold of each other in EC50: 26 nM for the first, 38 nM for the second.

Compared with CC(C)[C@H](CO)N1Cc2cccc(NC(=O)c3nc(C(F)(F)F)ccc3Cl)c2C1=O [Compound 125, (R)-3-chloro-N-(2-(1-hydroxy-3-methylbutan-2-yl)-3-oxoisoindolin-4-yl)-6-(trifluoromethyl)picolinamide], CC(C)[C@H](CO)N1Cc2cccc(NC(=O)c3nc(Cl)ccc3C(F)(F)F)c2C1=O [Compound 132, (R)-6-chloro-N-(2-(1-hydroxy-3-methylbutan-2-yl)-3-oxoisoindolin-4-yl)-3-(trifluoromethyl)picolinamide] is 1.5-fold higher in EC50: 30 nM for the first, 46 nM for the second. The first is the more potent here.

Cn1ccc2c(C(=O)Nc3cccc4c3C(=O)N(C(C3CC3)C3CC3)C4)cccc21 [Compound 126, N-(2-(dicyclopropylmethyl)-3-oxoisoindolin-4-yl)-1-methyl-1H-indole-4-carboxamide] and Cn1cc2c(C(=O)Nc3cccc4c3C(=O)N(C(C3CC3)C3CC3)C4)cccc2n1 [Compound 133, N-(2-(dicyclopropylmethyl)-3-oxoisoindolin-4-yl)-2-methyl-2H-indazole-4-carboxamide] are within 1.5-fold of each other in EC50: 35 nM for the first, 49 nM for the second.

C[C@@H](N1Cc2cccc(NC(=O)c3c(C(F)(F)F)cnc4ccccc34)c2C1=O)C(C)(C)O [Compound 127, (R)-N-(2-(3-hydroxy-3-methylbutan-2-yl)-3-oxoisoindolin-4-yl)-3-(trifluoromethyl)quinoline-4-carboxamide] and O=C(Nc1cccc2c1C(=O)N(CC1CC1)C2)c1c(C(F)(F)F)cnc2ccccc12 [Compound 130, N-(2-(cyclopropylmethyl)-3-oxoisoindolin-4-yl)-3-(trifluoromethyl)quinoline-4-carboxamide] are within 1.5-fold of each other in EC50: 38 nM for the first, 40 nM for the second.

Going from O=C(Nc1cccc2c1C(=O)N(CC1CC1)C2)c1c2c(nc3ccccc13)CCC2 [Compound 128, N-(2-(cyclopropylmethyl)-3-oxoisoindolin-4-yl)-2,3-dihydro-1H-cyclopenta[b]quinoline-9-carboxamide] to O=C(Nc1cccc2c1C(=O)N(CC1CC1)C2)c1ccnc2c1CCC2 [Compound 146, N-(2-(cyclopropylmethyl)-3-oxoisoindolin-4-yl)-6,7-dihydro-5H-cyclopenta[b]pyridine-4-carboxamide], the EC50 rises from 38 nM to 390 nM (10-fold). The first is the more potent here.

First: Cc1cnc2c(c1C(=O)Nc1cccc3c1C(=O)N([C@@H](C)C1CC1)C3)OCO2 [Compound 134, (S)-N-(2-(1-cyclopropylethyl)-3-oxoisoindolin-4-yl)-6-methyl-[1,3]dioxolo[4,5-b]pyridine-7-carboxamide]
Second: COc1nccc(C(=O)Nc2cccc3c2C(=O)N([C@H](C2CC2)C(C)(C)O)C3)c1C [Compound 159, (R)-N-(2-(1-cyclopropyl-2-hydroxy-2-methylpropyl)-3-oxoisoindolin-4-yl)-2-methoxy-3-methylisonicotinamide]
The EC50 of the first is 24-fold higher: 59 nM for the first, 2.5 nM for the second. The second is the more potent here.

Compared with COc1ccc2ncc(F)c(C(=O)Nc3cccc4c3C(=O)N(CC3CC3)C4)c2n1 [Compound 135, N-(2-(cyclopropylmethyl)-3-oxoisoindolin-4-yl)-3-fluoro-6-methoxy-1,5-naphthyridine-4-carboxamide], O=C(Nc1cccc2c1C(=O)N(CC1CC1)C2)c1ccnc2ccc(F)cc12 [Compound 144, N-(2-(cyclopropylmethyl)-3-oxoisoindolin-4-yl)-6-fluoroquinoline-4-carboxamide] is 3-fold higher in EC50: 64 nM for the first, 190 nM for the second.

Going from CCOc1ncccc1C(=O)Nc1cccc2c1C(=O)N([C@H](C)C(C)(C)O)C2 [Compound 138, (R)-2-ethoxy-N-(2-(3-hydroxy-3-methylbutan-2-yl)-3-oxoisoindolin-4-yl)nicotinamide] to CC(C)(O)[C@@H](C1CC1)N1Cc2cccc(NC(=O)c3cccn4nccc34)c2C1=O [Compound 156, (R)-N-(2-(1-cyclopropyl-2-hydroxy-2-methylpropyl)-3-oxoisoindolin-4-yl)pyrazolo[1,5-a]pyridine-4-carboxamide], the EC50 falls from 88 nM to 0.97 nM (91-fold). The second is the more potent here.

First: O=C(Nc1cccc2c1C(=O)N(CC1CC1)C2)c1c(Cl)cncc1Cl [Compound 139, 3,5-dichloro-N-(2-(cyclopropylmethyl)-3-oxoisoindolin-4-yl)isonicotinamide]
Second: O=C(Nc1cc(Cl)cc2c1C(=O)N(CC1CC1)C2)c1ccnc2c1CCC2 [Compound 143, N-(6-chloro-2-(cyclopropylmethyl)-3-oxoisoindolin-4-yl)-6,7-dihydro-5H-cyclopenta[b]pyridine-4-carboxamide]
The EC50 of the first is 1.5-fold lower: 120 nM for the first, 180 nM for the second.

Going from O=C(Nc1cccc2c1C(=O)N(C(C1CC1)C1CC1)C2)c1ccnc2[nH]ccc12 [Compound 141, N-(2-(dicyclopropylmethyl)-3-oxoisoindolin-4-yl)-1H-pyrrolo[2,3-b]pyridine-4-carboxamide] to O=C(Nc1cccc2c1C(=O)N(C(C1CC1)C1CC1)C2)c1cccc2c1OCC2 [Compound 145, N-(2-(dicyclopropylmethyl)-3-oxoisoindolin-4-yl)-2,3-dihydrobenzofuran-7-carboxamide], the EC50 rises from 140 nM to 260 nM (1.9-fold).

Compared with O=C(Nc1cccc2c1C(=O)N(C(C1CC1)C1CC1)C2)c1ccc(F)c2c1CCC2=O [Compound 142, N-(2-(dicyclopropylmethyl)-3-oxoisoindolin-4-yl)-7-fluoro-1-oxo-2,3-dihydro-1H-indene-4-carboxamide], O=C(Nc1cccc2c1C(=O)N(c1ccc(F)cc1)C2)OC1CN2CCC1CC2 (stereo not shown) [Compound 150, Quinuclidin-3-yl(2-(4-fluorophenyl)-3-oxoisoindolin-4-yl)carbamate] is 5.3-fold higher in EC50: 140 nM for the first, 740 nM for the second.

Compared with O=C(Nc1ccc(Cl)c2c1C(=O)N(CC1CC1)C2)c1ccnc2c1CCC2 [Compound 147, N-(7-chloro-2-(cyclopropylmethyl)-3-oxoisoindolin-4-yl)-6,7-dihydro-5H-cyclopenta[b]pyridine-4-carboxamide], O=C(Nc1ccc(O)c2c1C(=O)N(CC1CC1)C2)c1ccnc2c1CCC2 [Compound 149, N-(2-(Cyclopropylmethyl)-7-hydroxy-3-oxoisoindolin-4-yl)-6,7-dihydro-5H-cyclopenta[b]pyridine-4-carboxamide] is 1.6-fold higher in EC50: 560 nM for the first, 900 nM for the second.

First: Cc1cc2c(c(NC(=O)c3ccnc4c3CCC4)c1)C(=O)N(CC1CC1)C2 [Compound 148, N-(2-(Cyclopropylmethyl)-6-methyl-3-oxoisoindolin-4-yl)-6,7-dihydro-5H-cyclopenta[b]pyridine-4-carboxamide]
Second: Cn1cc2c(C(=O)Nc3cc(F)cc4c3C(=O)N([C@H](C3CC3)C(C)(C)O)C4)cccc2n1 [Compound 161, (R)-N-(2-(1-cyclopropyl-2-hydroxy-2-methylpropyl)-6-fluoro-3-oxoisoindolin-4-yl)-2-methyl-2H-indazole-4-carboxamide]
The EC50 of the first is 55-fold higher: 500 nM for the first, 9.1 nM for the second. The second is the more potent here.
